{
  "source": "patent EP0231622B1",
  "about": "“Inhibition of the 5-lipoxygenase pathway” (priority 1985, dated 1987)",
  "key": {"[1]": {"tested_on": "Arachidonic Acid-Induced Rat Paw Edema", "test": "Arachidonic acid-induced rat paw swelling", "type": "in vivo, Lewis rats", "conditions": "100 mg/kg, read at 2 hours", "text": "(§1) In the following Examples where mice were used, they were male Balb/c mice (20-28 g), and where rats were used, they were male Lewis rats (180-210 g). All mice and rats were obtained from Charles River Breeding Laboratories, Kingston, N.Y. Within a single experiment, mice and rats were sex and age matched.\n(§2) The compounds of Formula (IA) were used either as the free base or in the appropriate salt form. Levamisole was used as the hydrochloride salt. The compounds were homogenized in 0.5% tragacanth. Compounds were administered by gavage at the indicated dose in a final volume of 10 ml/kg. Nordihydroguaiaretic acid (NDGA) was solubilized in dimethylacetamide and diluted with olive oil for subcutaneous administration."}, "[2]": {"tested_on": "Production of PGE₂ by Mouse Peritoneal Exudate Cells", "test": "PGE2 production by peritoneal macrophages", "type": "cell-based", "method": "For in vitro experiments, compounds were dissolved at appropriate concentrations in ethanol or DMSO (dimethylsulfoxide) (final concentration <1.0%) and then diluted to final concentrations using the buffers indicated in the text.\nMice were injected intraperitoneally with 350 »g Corynebacterium parvum and the peritoneal exudate cell population was harvested 12-14 days later by peritoneal lavage with cold phosphate-buffered saline, and resuspended in Eagles minimal essential medium supplemented with 5% fetal calf serum. […] Test compounds were added (100 ul) to bring the final volume to 1.0 ml. Lipopolysaccharide (5 »g/ml) was then added to stimulate PGE₂ synthesis. After incubation at 37°C for 2 hours, cell-free supernatants were harvested, placed in polypropylene tubes and frozen at -20°C until assayed for their PGE₂ content using a commercial radioimmunoassay kit. IC₅₀ is the concentration that inhibits 50% of control activity."}, "[3]": {"tested_on": "Experimental Allergic Encephalomyelitis", "test": "Experimental allergic encephalomyelitis, hindleg paralysis", "type": "in vivo, Female Lewis rats", "conditions": "60 Mg/kg/day, p.o. days 0-4, 7-11, 14-18", "method": "EAE is induced in Female (Charles River) Lewis rats by a single intradermal injection of 0.1 ml of an encephalitogenic emulsion consisting of equial parts of a 50% w/v homogenate of guinea pig spinal cord and mid-brain in 0.5% aqueous phenol and Freund's complete adjuvant (4 mg/ml killed, dried M. butyricum) into a hindpaw (left) footpad. […] Any animal which becomes paralyzed during the course of the experiment is considered to have developed EAE whether or not the paralysis is permanent. Test compounds are administered daily beginning on the day of injection, for 19 days, exclusive of days 5, 6 12 and 13. Drug activity is determined by comparing the indicidence of EAE (paralysis) of the treated group with a control (vehicle) group. The level of significant difference between the treated groups and control groups is determined by a Chi-square test using a 2x2 contingency table. Body weight changes from day 0 are also statistically compared to the control group using a Student \"t\" test."}, "[4]": {"tested_on": "Arachidonic Acid-Induced Inflammation of the Mouse Ear", "test": "Arachidonic acid-induced mouse ear inflammation", "type": "in vivo, Balb/c mice", "text": "as §1, §2\nArachidonic acid in acetone (2 mg/20 ul) was applied to the inner surface of the left ear. The thickness of both ears was then measured with a dial micrometer one hour after treatment, and the data were expressed as the change in thickness (10⁻³ cm) between treated and untreated ears.\nTest compounds were given orally in 0.5% tragacanth at the times indicated in the text prior to the topical application of arachidonic acid.\nParenteral administration of compound was accomplished by subcutaneous injection of solution as indicated."}, "[5]": {"tested_on": "Polymorphonuclear Leukocytes", "test": "Mouse Carrageenan Peritonitis (PMN infiltration)", "type": "in vivo, Balb/c mice", "conditions": "for % Change / PMN x 10⁻⁵/ml (mean ± S.D.): Table 1, p.o.", "in_short": "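Male Balb/c mice dosed orally by gavage (compounds in 0.5% tragacanth) 1 h before i.p. 1.0% carrageenan; NDGA given s.c. Peritoneal lavage with Ca/Mg-free PBS 2 h post-injection; total cells by Coulter counter, differentials from Giemsa-stained slides.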"}, "[6]": {"tested_on": "Carrageenan-Induced Cellular Infiltration", "test": "Carrageenan-induced air pouch inflammation", "type": "in vivo, Lewis rats", "conditions": "100 mg/kg; 3 hours after carrageenan", "text": "as §1, §2\nRats were shaved on the dorsal flank, and then injected subcutaneously one day later with 20 ml of air to form a defined pouch, by the method of Sedgwick et al., J. Pathology, 141, 483-495 (1983). The air pouch was reinflated as necessary over the next 6 days. To assay anti-inflammatory activity, animals were treated orally with test compound or vehicle (10 ml/kg) one hour before injection of 2.0 ml of a 2.0% carrageenan suspension containing 200 units/ml penicillin and 100 »g/ml streptomycin into the air pouch. In other experiments, 5 ml of 0.1% arachidonic acid in 0.2 M bicarbonate buffer was injected two hours after drug treatment. Animals were sacrificed using CO₂ three hours after instillation of irritant. The exudate was then aspirated from the pouch and neutrophil count and differential cell count were measured."}},
  "note": "Like-named read-outs stand apart in the source and are kept apart here. Marks after values point to notes of the source that are not given here.",
  "data": [
    {"smiles": "Fc1ccc(-c2nc3n(c2-c2ccncc2)CCS3)cc1", "note": "[Compound 1, 5-(4-pyridyl)-6-(4-fluorophenyl)-2,3-dihydroimidazo[2,1-b]thiazole]", "values": [
      {"measurement": "Change in Paw Volume", "setting": "[1]; one hour before arachidonic acid", "value": "0.06 ± 0.05", "unit": "mL"},
      {"measurement": "(% Inhibition) of change in paw volume", "setting": "[1]", "value": 78, "unit": "%"},
      {"measurement": "IC50", "setting": "[2]; Macrophage, read-out: IC₅₀ production of PGE₂ by inflammatory macrophages", "value": 700, "unit": "nM"},
      {"measurement": "IC50", "setting": "[2]; Peritoneal macrophage, Table 10, LPS-stimulated, C. parvum-elicited peritoneal exudate cells, read-out: IC₅₀ (»M) production of PGE₂", "value": 700, "unit": "nM"},
      {"measurement": "HINDLEG PARALYSIS - CUMULATIVE INCIDENCE DAY 9 TO 13", "setting": "[3]", "value": "10/12"},
      {"measurement": "HINDLEG PARALYSIS - CUMULATIVE INCIDENCE DAY 14 TO 18", "setting": "[3]", "value": "0/11**"},
      {"measurement": "ED50", "setting": "[4]; Mus musculus, po, 1 hour after 2 mg of arachidonic acid to the ear, read-out: ED₅₀ (inhibition of the edematous response of the ear)", "value": 19.5, "unit": "mg/kg"},
      {"measurement": "% Change", "setting": "[4]; Table 7, 50 mg/kg, p.o.", "value": "-67^b %"},
      {"measurement": "Increase in Ear Thickness at 1 Hour (x 10⁻³ cm)", "setting": "[4]; Table 7, 50 mg/kg, p.o., 15 minutes before arachidonic acid", "value": "10.0 ± 1.5", "unit": "x 10⁻³ cm"},
      {"measurement": "ED50", "setting": "[5]; Mus musculus, Leukocyte, po, intraperitoneal carrageenan in mice, read-out: ED₅₀ (inhibition of PMN infiltration)", "value": 43.9, "unit": "mg/kg"},
      {"measurement": "% Change", "setting": "[5]; 25 mg/kg", "value": "-27^e %"},
      {"measurement": "% Change", "setting": "[5]; 50 mg/kg", "value": "-56^c %"},
      {"measurement": "PMN x 10⁻⁵/ml (mean ± S.D.)", "setting": "[5]; 50 mg/kg", "value": "4.84 ± 3.01", "unit": "x 10⁻⁵/ml"},
      {"measurement": "PMN x 10⁻⁵/ml (mean ± S.D.)", "setting": "[5]; 100 mg/kg, 1 h before i.p. carrageenan, read 2 h later", "value": "2.48 ± 0.98", "unit": "x 10⁻⁵/ml"},
      {"measurement": "% Change", "setting": "[5]; 100 mg/kg, PMN vs vehicle", "value": "-77^b %"},
      {"measurement": "Cellular Infiltrate (Total x 10⁻⁶) MN", "setting": "[6]", "value": "5.5 ± 3.8^e x 10⁻⁶"},
      {"measurement": "Cellular Infiltrate (Total x 10⁻⁶) PMN", "setting": "[6]", "value": "2.6 ± 1.3^d x 10⁻⁶"},
      {"measurement": "Exudate Volume", "setting": "[6]", "value": "1.0 ± 0.9", "unit": "mL"}
    ]}
  ]
}
